Experimental data published in paper PMC5458078, “Global mapping of CARM1 substrates defines enzyme specificity and substrate recognition” (Nature Communications, 2017).

Tested on: MCF7 cells
Assay: Quantitative nanoLC-MS/MS (TMT) of ADMA-containing peptides, CARM1 KO vs parental
Format: cell-based, human
Set-up: Fold change KO/WT: scale not given here
Conditions: ADMA-containing peptide, CARM1 knockout (KO) vs wild type (WT) MCF7 cells; 6-plex TMT experiment #1; three biological replicates each; sheet "MCF7"

Substance | Fold change KO/WT
LGrLLGIFEQNQDRKHR | -0.4775
LrQQLQAK | -3.626
SQGAQPQQVTLrLALR | -1.987
QPQPAQNVLAAPrLR | -1.672
LAMDFGGAGAAQQGLTDSCQSGGVPTAVQNLAPrAAVAAAAPrAVAPYK | -4.352
RAPAGGSLGrALMR | 0.1845
RGPLSQNGSFGPSPVSGGECSPPLTVEPPVrPLSATLNR | -2.59
FEGPQGQLGGGCPLrFEGPPGPVGTPLrFEGPIGQAGGGGFR | -2.35
FFEAAAGSGSSAGAGDGAGPQrLPEPGGRPR | -1.059
VTrYPILGIPQAHR | -1.789
LLALSGPGGGrGrGSLLLR | 0.2339

Same assay, conditions: ADMA-containing peptide, MCF7, CARM1 knockout (KO1-3) vs wild type (WT1-3), TMT 6-plex experiment #1

Substance | Fold change KO/WT
TAAALAPASLTSArMAPALSGANLTSPrVPLSAYER | -3.829
CPADNPGLVQAQPrVPLTPTR | -4.345
LINFQNHSPKPNGPVLPPHPQQLrYPPNQNIPR | 0.6311
GrGTLTrGAFVGATAAPGYIAPGYGTPYGYSTAAPAYGLPK | 0.06714
HQQLQQMrMQQPPAPVPTTTTTTQQHPrQAAPQMLQQQPPrLISVQTMQR | -1.659
LFHLPEYTWrLPCGGVR | -2.1298
TPTATTSGIrATLTPTVLAPR | -1.669
MAPALSGANLTSPrVPLSAYER | -4.135
QrGVSHAMGGrGGINrGNIN | 0.1671
VrINLQQQPPPLQIK | -3.801

Same assay, conditions: CARM1 KO vs wild type MCF7 cells, 3 biological replicates each

Substance | Fold change KO/WT
CDPVPAANGAIrFHCDPTFWAK | -1.494
LLPAPrAYLVPENFR | -0.8691
HQQLQQMrMQQPPAPVPTTTTTTQQHPrQAAPQMLQQQPPrLISVQTMQR | -1.574
DVEAATGQDLGSSrYSGK | 0.2995
YPLPPPSGrYNWN | -1.371

Same assay, conditions: MCF7, CARM1 KO (KO1-KO3) vs wild type (WT1-WT3)

Substance | Fold change KO/WT
rPFGISALIVGFDDDGISR | -1.577
APrSLIPPIPVSPPILAPrLSSGALK | -1.927
FLQPrLAPNQPPPPLIrPALAAPR | -3.157
MGTPVPrPPQDMGQIGVrTPLGPrVAAPVGPVGPTPTVLPMGAPVPrPR | -2.587
TPASTWASPrPLLNWSR | -3.334
GQPrTWLQSPV | -3.17
EPFLSrDPFHSLK | 2.308
GGrGrGSLNHMVVDHRPK | 0.3337

Tested on: MCF7 CARM1 KO cells
Assay: Quantitative MS of ADMA-containing peptides in MCF7 CARM1 KO cells expressing CARM1 28-608 or CARM1 140-608, and in CARM1 KO
Format: cell-based, human
Conditions: CARM1 140-608 versus WT, difference of mean log2 values

Substance | CARM1 140-608/WT
CDPVPAANGAIrFHCDPTFWAK | -1.543
LLPAPrAYLVPENFR | -1.125
LINFQNHSPKPNGPVLPPHPQQLrYPPNQNIPR | 0.3327
HQQLQQMrMQQPPAPVPTTTTTTQQHPrQAAPQMLQQQPPrLISVQTMQR | -0.9301
DVEAATGQDLGSSrYSGK | -0.09015
YPLPPPSGrYNWN | -1.592
QrGVSHAMGGrGGINrGNIN | -0.01925

Same assay, conditions: CARM1 140-608 versus WT, mean of three replicates (log2)

Substance | CARM1 140-608/WT
LGrLLGIFEQNQDRKHR | -0.3444
SQGAQPQQVTLrLALR | -1.727
rPFGISALIVGFDDDGISR | -0.5842
QPQPAQNVLAAPrLR | -0.6318
LAMDFGGAGAAQQGLTDSCQSGGVPTAVQNLAPrAAVAAAAPrAVAPYK | -1.57
FEGPQGQLGGGCPLrFEGPPGPVGTPLrFEGPIGQAGGGGFR | 1.054
LLALSGPGGGrGrGSLLLR | -0.3383

Same assay, conditions: CARM1 140-608 vs WT, mean of 3 replicates (log2 scale)

Substance | CARM1 140-608/WT
APrSLIPPIPVSPPILAPrLSSGALK | -0.773
FLQPrLAPNQPPPPLIrPALAAPR | 0.3049
MGTPVPrPPQDMGQIGVrTPLGPrVAAPVGPVGPTPTVLPMGAPVPrPR | -1.761
TPASTWASPrPLLNWSR | -2.026
GQPrTWLQSPV | -2.79
EPFLSrDPFHSLK | 0.7405
GGrGrGSLNHMVVDHRPK | 0.3773

Same assay, conditions: CARM1 KO versus WT, difference of mean log2 values

Substance | KO/WT
CDPVPAANGAIrFHCDPTFWAK | -1.494
LLPAPrAYLVPENFR | -0.8691
LINFQNHSPKPNGPVLPPHPQQLrYPPNQNIPR | 0.1723
HQQLQQMrMQQPPAPVPTTTTTTQQHPrQAAPQMLQQQPPrLISVQTMQR | -2.355
DVEAATGQDLGSSrYSGK | -0.4514
YPLPPPSGrYNWN | -1.5401
QrGVSHAMGGrGGINrGNIN | 0.2719

Same assay, conditions: KO versus WT, mean of three replicates (log2)

Substance | KO/WT
LGrLLGIFEQNQDRKHR | -0.4775
SQGAQPQQVTLrLALR | -1.987
rPFGISALIVGFDDDGISR | -1.577
QPQPAQNVLAAPrLR | -1.672
LAMDFGGAGAAQQGLTDSCQSGGVPTAVQNLAPrAAVAAAAPrAVAPYK | -4.352
FEGPQGQLGGGCPLrFEGPPGPVGTPLrFEGPIGQAGGGGFR | -2.35
LLALSGPGGGrGrGSLLLR | -0.09674

Same assay, conditions: KO vs WT, mean of 3 replicates (log2 scale)

Substance | KO/WT
APrSLIPPIPVSPPILAPrLSSGALK | -1.927
FLQPrLAPNQPPPPLIrPALAAPR | -2.801
MGTPVPrPPQDMGQIGVrTPLGPrVAAPVGPVGPTPTVLPMGAPVPrPR | -2.783
TPASTWASPrPLLNWSR | -3.334
GQPrTWLQSPV | -3.17
EPFLSrDPFHSLK | 1.534
GGrGrGSLNHMVVDHRPK | 0.3337

Same assay, conditions: difference of log2 means, CARM1 140-608 vs WT

Substance | CARM1 140-608/WT
LrQQLQAK | -1.5575
RAPAGGSLGrALMR | 0.2074
RGPLSQNGSFGPSPVSGGECSPPLTVEPPVrPLSATLNR | -1.692
FFEAAAGSGSSAGAGDGAGPQrLPEPGGRPR | -1.027
VTrYPILGIPQAHR | -2.491

Same assay, conditions: difference of log2 means, KO vs WT

Substance | KO/WT
LrQQLQAK | -2.723
RAPAGGSLGrALMR | 0.5402
RGPLSQNGSFGPSPVSGGECSPPLTVEPPVrPLSATLNR | -2.59
FFEAAAGSGSSAGAGDGAGPQrLPEPGGRPR | -1.059
VTrYPILGIPQAHR | -2.966

Same assay, conditions: log2 scale ratio, mean of n = 3

Substance | CARM1 140-608/WT | KO/WT
TAAALAPASLTSArMAPALSGANLTSPrVPLSAYER | -2.654 | -3.829
CPADNPGLVQAQPrVPLTPTR | -3.3817 | -4.345
GrGTLTrGAFVGATAAPGYIAPGYGTPYGYSTAAPAYGLPK | -0.05087 | 0.2558
LFHLPEYTWrLPCGGVR | 0.09104 | -2.175
TPTATTSGIrATLTPTVLAPR | 0.4696 | -2.089
MAPALSGANLTSPrVPLSAYER | -3.667 | -5.009
VrINLQQQPPPLQIK | -1.463 | -4.329
